The target of the assay is T1, CYP121A1 (Mycobacterium tuberculosis, UniProt P9WPP7).
T1 construct: made in house
T1 sequence (P9WPP7 whole entry): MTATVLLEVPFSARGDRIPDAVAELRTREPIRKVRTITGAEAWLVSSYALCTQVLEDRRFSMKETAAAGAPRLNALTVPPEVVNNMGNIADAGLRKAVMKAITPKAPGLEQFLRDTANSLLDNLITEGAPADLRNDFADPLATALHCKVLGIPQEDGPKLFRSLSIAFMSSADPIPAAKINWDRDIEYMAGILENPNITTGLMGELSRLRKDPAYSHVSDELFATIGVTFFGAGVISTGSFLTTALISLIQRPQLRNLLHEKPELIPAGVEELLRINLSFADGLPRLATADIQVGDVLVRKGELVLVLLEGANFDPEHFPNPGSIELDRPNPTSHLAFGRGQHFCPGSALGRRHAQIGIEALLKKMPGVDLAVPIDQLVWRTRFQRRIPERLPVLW
The format is binding. The conditions noted are these: heme Soret peak position, ligand-free to apparent saturation.
As for `c1ccc(-c2nn(-c3ccccc3)cc2Cn2ccnc2)cc1` [7a, (1,3-Diphenyl)-4-((1,3-imidazol-1-yl)methyl)-1H-pyrazole], the Soret peak shift is reported as 416–423.5 nm.
To `Fc1ccc(-c2nn(-c3ccccc3)cc2Cn2ccnc2)cc1` [7b, 4-((1H-Imidazol-1-yl)methyl)-3-(4-fluorophenyl)-1-phenyl-1H-pyrazole] belongs 416–423.5 nm.
As to `Clc1ccc(-c2nn(-c3ccccc3)cc2Cn2ccnc2)cc1` [7c, 4-((1H-Imidazol-1-yl)methyl)-3-(4-chlorophenyl)-1-phenyl-1H-pyrazole], the Soret peak shift was 416–422 nm.
Take `Cc1ccc(-c2nn(-c3ccccc3)cc2Cn2ccnc2)cc1` [7d, 4-((1H-Imidazol-1-yl)methyl)-1-phenyl-3-(p-tolyl)-1H-pyrazole]: the Soret peak shift is listed as 416–421.5 nm.
For `COc1ccc(-c2nn(-c3ccccc3)cc2Cn2ccnc2)cc1` [7e, 4-((1H-Imidazol-1-yl)methyl)-3-(4-methoxyphenyl)-1-phenyl-1H-pyrazole] the value was 416–421 nm; for `Brc1ccc(-c2nn(-c3ccccc3)cc2Cn2ccnc2)cc1` [7f, 4-((1H-Imidazole-1-yl)methyl)-3-(4-bromophenyl)-1-phenyl-1H-pyrazole], 416–420 nm.
As for `Ic1ccc(-c2nn(-c3ccccc3)cc2Cn2ccnc2)cc1` [7g, 4-((1H-Imidazole-1-yl)methyl)-3-(4-iodophenyl)-1-phenyl-1H-pyrazole], the Soret peak shift was 416–422 nm.
Turning to `N#Cc1ccc(-c2nn(-c3ccccc3)cc2Cn2ccnc2)cc1` [7h, 4-(4-((1H-Imidazol-1-yl)methyl)-1-phenyl-1H-pyrazol-3-yl)benzonitrile], the Soret peak shift is recorded as 416–418 nm.
On to `c1ccc(-c2nn(-c3ccccc3)cc2Cn2cncn2)cc1` [8a, 1-((1,3-Diphenyl-1H-pyrazol-4-yl)methyl)-1H-[1,2,4]triazole], for which the Soret peak shift is 416–422 nm.
On to `Fc1ccc(-c2nn(-c3ccccc3)cc2Cn2cncn2)cc1` [8b, 1-((3-(4-Fluorophenyl)-1-phenyl-1H-pyrazole-4-yl)methyl)-1H-1,2,4-triazole], for which the Soret peak shift is listed as 416–423 nm.
With `Clc1ccc(-c2nn(-c3ccccc3)cc2Cn2cncn2)cc1` [8c, 1-((3-(4-Chlorophenyl)-1-phenyl-1H-pyrazole-4-yl)methyl)-1H-1,2,4-triazole], the Soret peak shift is listed as 416–421 nm.
For `Cc1ccc(-c2nn(-c3ccccc3)cc2Cn2cncn2)cc1` [8d, 1((1-Phenyl-3-(p-tolyl)-1H-pyrazol-4-yl)methyl)-1H-1,2,4-triazole] the value was 416–418 nm; for `COc1ccc(-c2nn(-c3ccccc3)cc2Cn2cncn2)cc1` [8e, 1-((3-(4-Methoxyphenyl)-1-phenyl-1H-pyrazol-4-yl)methyl)-1H-1,2,4-triazole], 416–420 nm.
To `Brc1ccc(-c2nn(-c3ccccc3)cc2Cn2cncn2)cc1` [8f, 1-((3-(4-Bromophenyl)-1-phenyl-1H-pyrazol-4-yl)methyl)-1H-1,2,4-triazole] belongs 416–417.5 nm; to `Ic1ccc(-c2nn(-c3ccccc3)cc2Cn2cncn2)cc1` [8g, 1-((3-(4-Iodophenyl)-1-phenyl-1H-pyrazol-4-yl)methyl)-1H-1,2,4-triazole], “no binding”.
Turning to `N#Cc1ccc(-c2nn(-c3ccccc3)cc2Cn2cncn2)cc1` [8h], the Soret peak shift result is “no binding”.
For `O=C(NCCn1ccnc1)c1cn(-c2ccccc2)nc1-c1ccc(F)cc1` [13b, N-(2-(1H-Imidazol-1-yl)ethyl)-3-(4-fluorophenyl)-1-phenyl-1H-pyrazole-4-carboxamide] the value was “no binding”; for `O=C(NCCn1ccnc1)c1cn(-c2ccccc2)nc1-c1ccc(Cl)cc1` [13c, N-(2-(1H-Imidazol-1-yl)ethyl)-3-(4-chlorophenyl)-1-phenyl-1H-pyrazole-4-carboxamide], “no binding”.

(Values after PMC5748275, “Novel Aryl Substituted Pyrazoles as Small Molecule Inhibitors of Cytochrome P450 CYP121A1: Synthesis and Antimycobacterial Evaluation” (Journal of Medicinal Chemistry, 2017).)
